Where two headings read alike, the source gives them in different places. Non-standard residues stand in square brackets, D forms with d. Residues, ends and D or L forms follow the SMILES beside them. No end group written: not given here.
Columns and labels:
[1] = test system: linearized DNA (pIVEX 2.3d plasmid); test: Gel retardation assay, in vitro interaction with DNA; format: binding; conditions: 100 ng DNA, 100-500 ng peptide, RT 1 h, 1% agarose gel; all tested conditions; three experiments
Protocol: One hundred ng of linearized DNA (pIVEX 2.3d plasmid) were incubated with increasing concentrations of the L- or D-peptides (0, 100, 150, 175, 200, 250, 275, 300, 350, 400, 450, 500 ng) at RT for 1 h. Samples were run into a 1% agarose gel in TAE buffer at 50 V and visualized in a Gel Doc X3+ (Biorad, Hercules, CA, USA). DNA band intensities were measured using the Image Lab software 6.1 (Biorad, Hercules, CA, USA). The band intensity reduction was calculated as the ratio between the band intensity in the presence of peptide over that of the untreated DNA. To compare the DNA binding activities of L- and D- peptides, for each peptide amount, we determined the ratio between the band intensity reduction with D-Q53 CecB and that with L-Q53 CecB. Three experiments have been performed.

[2] = test system: A549 lung adenocarcinoma cells; test: in vitro; format: cell-based, human
Protocol: (§1) The peptide cytotoxicity against human cells was evaluated using CCD-34Lu-lung fibroblasts and A549-lung adenocarcinoma cells. Moreover, 6 × 10^3 cells in DMEM medium added with 10% FBS were seeded in 96-well sterile plates. After 24 h, cells were incubated with increasing concentrations of peptide (final concentrations of 5, 10, 25, 50, and 100 µM, with an additional concentration of 200 µM in CCD-34Lu) for 24 h at 37 °C (three replicates per condition). Cell viability was measured by removing the exhausted medium, adding 100 µL of DMEM and 20 µL of the MTS solution (Promega). Plates were incubated at 37 °C for 20 min until the complete conversion of the compound. The absorbance was measured at 492 nm using a microplate reader. Cell viability was calculated using the formula: Viability (%)=ODCecB−OD0/ODCtrl−OD0×100, where ODCecB is the OD in the presence of the peptide, ODCtrl is the OD of cells without the peptide, and OD0 is the background absorbance (wells with only medium and MTS compound). The experiment was performed at least twice.

in vitro = format: cell-based, human
Protocol: as §1

[3] = test system: CCD-34Lu lung fibroblasts; test: in vitro; format: cell-based, human
Protocol: as §1

trypsin = conditions: cited from earlier work
Excerpt: Recently, we characterized Q53 CecB, a natural CecB variant derived from the silkworm Bombyx mori. […] Additionally, Q53 CecB maintains an anti-Pseudomonas activity at a high saline concent ...

| Compound | ratio between the DNA band intensities for D- and L-Q53 CecB [1] | cell viability ([2]; 50 µM) | cell viability ([2]; 100 µM) | IC50 at 24 h (in vitro) | IC50 at 24 h (in vitro; human) | cell viability ([3]; 50 µM) | cell viability ([3]; 100 µM) | cell viability ([3]; 200 µM) | antibacterial activity after trypsin treatment (trypsin) |
| --- | --- | --- | --- | --- | --- | --- | --- | --- | --- |
| CC[C@@H](C)[C@@H](NC(=O)[C@@H](C)NC(=O)[C@@H](CCCCN)NC(=O)[C@@H](C)NC(=O)[C@@H](CO)NC(=O)CNC(=O)[C@@H](CC(C)C)NC(=O)[C@H](NC(=O)[C@@H](CCC(N)=O)NC(=O)[C@H](NC(=O)[C@@H](C)NC(=O)[C@H]1CCCN1C(=O)CNC(=O)[C@@H](C)NC(=O)[C@@H](CCCCN)NC(=O)[C@H](NC(=O)[C@H](NC(=O)CNC(=O)[C@@H](CC(=O)O)NC(=O)[C@@H](CCCNC(=N)N)NC(=O)[C@H](NC(=O)[C@@H](CC(N)=O)NC(=O)[C@@H](CCCNC(=N)N)NC(=O)CNC(=O)[C@@H](CCSC)NC(=O)[C@@H](CCCCN)NC(=O)[C@@H](CCC(=O)O)NC(=O)[C@H](NC(=O)[C@@H](CCCCN)NC(=O)[C@@H](CCCCN)NC(=O)[C@@H](Cc1ccccc1)NC(=O)[C@H](NC(=O)[C@@H](CCCCN)NC(=O)[C@@H](Cc1c[nH]c2ccccc12)NC(=O)[C@H](N)CCCNC(=N)N)[C@H](C)CC)[C@H](C)CC)[C@H](C)CC)[C@H](C)CC)C(C)C)[C@H](C)CC)C(C)C)C(N)=O [D-Q53 CecB] (H-[dR][dW][dK][dI][dF][dK][dK][dI][dE][dK][dM]G[dR][dN][dI][dR][dD]G[dI][dV][dK][dA]G[dP][dA][dI][dQ][dV][dL]G[dS][dA][dK][dA][dI]-NH2; N-terminus and C-terminus assumed) | ~ 1 | ~ 79% | ~15% | 72.6 ± 2.81 µM | 68 ± 3.71 µM | ~ 85% | ~27% | ~4.5% | – |
| RWKIFKKIEKMGRNIRDGIVKAGPAIQVLGSAKAI-NH2 [L-Q53 CecB] | – | – | – | – | – | – | – | – | lost its antibacterial activity |

From paper PMC10419416, “Fighting Pseudomonas aeruginosa Infections: Antibacterial and Antibiofilm Activity of D-Q53 CecB, a Synthetic Analog of a Silkworm Natural Cecropin B Variant” (International Journal of Molecular Sciences, 2023)
